Test results taken from patent US8124788B2, “Spirocyclic cyclohexane compounds with analgesic activity” (Gruenenthal GmbH, priority 2006, dated 2012).

molecular target: T1, human μ opiate receptor (Homo sapiens, UniProt P35372); test: Affinity for the human μ opiate receptor ([3H]-naloxone displacement, CHO-K1 membrane preparation, SPA); type: binding; details: compounds prepared via automated synthesis; single measurements at a test concentration of 1 μM
T1 construct: purchased PerkinElmer Life Sciences, Zaventem, Belgium RB-HOM; host or cells: CHO-K1 cells (recombinant expression)
T1 sequence (P35372 whole entry): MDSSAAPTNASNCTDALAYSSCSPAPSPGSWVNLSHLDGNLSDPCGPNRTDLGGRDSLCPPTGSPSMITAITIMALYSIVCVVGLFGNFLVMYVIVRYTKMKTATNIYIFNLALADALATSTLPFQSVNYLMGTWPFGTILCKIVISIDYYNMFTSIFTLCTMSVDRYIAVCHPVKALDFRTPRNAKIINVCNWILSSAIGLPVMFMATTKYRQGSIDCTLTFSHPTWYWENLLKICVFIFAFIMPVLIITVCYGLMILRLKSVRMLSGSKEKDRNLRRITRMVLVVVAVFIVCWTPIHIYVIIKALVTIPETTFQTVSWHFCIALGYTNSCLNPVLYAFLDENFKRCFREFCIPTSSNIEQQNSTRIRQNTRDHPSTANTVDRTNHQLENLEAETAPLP
Protocol: The receptor affinity for the human μ opiate receptor is determined in a homogeneous set-up in microtitre plates. For this purpose, dilution series of the substances to be tested are incubated with a receptor membrane preparation (15-40 μg of protein/250 μl of incubation batch) of CHO-K1 cells which express the human μ opiate receptor (RB-HOM receptor membrane preparation from PerkinElmer Life Sciences, Zaventem, Belgium) in the presence of 1 nmol/l of the radioactive ligand [^3H]-naloxone (NET719, PerkinElmer Life Sciences, Zaventem, Belgium) and 1 mg of WGA-SPA-Beads (wheat germ agglutinin SPA beads from Amersham/Pharmacia, Freiburg, Germany) in a total volume of 250 μl for 90 minutes at room temperature. 50 mmol/l of Tris-HCl supplemented with 0.06% of bovine serum albumin are used as the incubation buffer. 100 μmol/l of naloxone are additionally added for determination of the non-specific binding. After the end of the ninety-minute incubation time, the microtitre plates are centrifuged for 20 minutes at 1,000 g and the radioactivity is measured in a β-counter (Microbeta-Trilum, PerkinElmer Wallac, Freiburg, Germany). The percentage displacement of the radioactive ligand from its binding to the human μ opiate receptor is determined at a concentration of the test substances of 1 μmol/l and stated as the percentage inhibition of the specific binding. Starting from the percentage displacement by various concentrations of the test substances, IC50 inhibitory concentrations which cause a 50 percent displacement of the radioactive ligand are calculated. By conversion by means of the Cheng-Prusoff relationship, Ki values for the test substances are obtained.

| SMILES | μ opioid receptor [1 μmol], % inhibition |
| --- | --- |
| CCC(=O)N1CCc2c([nH]c3ccccc23)C12CCC(C(c1cccc(F)c1)N(C)C)CC2 (centres unmarked) [Compound 113, 2-propionyl-{1,1-[3-(dimethylamino-(3-fluorophenyl)methyl)-pentamethylene]-3,4-dihydro-1H-2,9-diazafluorene}] | 13% |
| CN(C)C(c1ccc(Cl)cc1)C1CCC2(CC1)c1[nH]c3ccccc3c1CCN2C(=O)C1CCCCC1 (centres unmarked) [Compound 76, 2-(cyclohexylcarbonyl)-{1,1-[3-(dimethylamino-(4-chlorophenyl)methyl)-pentamethylene]-3,4-dihydro-1H-2,9-diazafluorene}] | 15% |
| CN(C)C(c1ccccc1)C1CCC2(CC1)c1[nH]c3ccccc3c1CCN2C(=O)C=Cc1ccccc1Cl (centres unmarked) [Compound 61, 1-{1,1-[3-(dimethylamino-phenylmethyl)-pentamethylene]-3,4-dihydro-1H-2,9-diazafluoren-2-yl}-3-(2-chlorophenyl)prop-2-en-1-one] | 6% |
| CN(C)C(c1ccc(F)cc1)C1CCC2(CC1)c1[nH]c3ccccc3c1CCN2C(=O)Cc1ccc(F)cc1 (centres unmarked) [Compound 110, 2-[(4-fluorophenyl)acetyl]-{1,1-[3-(dimethylamino-(4-fluorophenyl)methyl)-pentamethylene]-3,4-dihydro-1H-2,9-diazafluorene}] | 14% |
| CN(C)C(c1cccc(F)c1)C1CCC2(CC1)c1[nH]c3ccccc3c1CCN2C(=O)COc1ccc(Cl)cc1 (centres unmarked) [Compound 70, 2-[(4-chlorophenoxy)acetyl]-{1,1-[3-(dimethylamino-(3-fluorophenyl)methyl)-pentamethylene]-3,4-dihydro-1H-2,9-diazafluorene}] | 31% |
| CN(C)C(c1ccccc1)C1CCC2(CC1)c1[nH]c3ccccc3c1CCN2C(=O)C1CCCC1 (centres unmarked) [Compound 125, 2-cyclopentylcarbonyl-{1,1-[3-(dimethylamino-phenylmethyl)-pentamethylene]-3,4-dihydro-1H-2,9-diazafluorene}] | 29% |
| COc1ccc(CC(=O)N2CCc3c([nH]c4ccccc34)C23CCC(C(c2ccc(Cl)cc2)N(C)C)CC3)cc1OC (centres unmarked) [Compound 74, 2-[(3,4-dimethoxyphenyl)acetyl]-{1,1-[3-(dimethylamino-(4-chlorophenyl)-methyl)-pentamethylene]-3,4-dihydro-1H-2,9-diazafluorene}] | 37% |
| CC(=O)N1CCc2c([nH]c3ccccc23)C12CCC(C(c1ccc(F)cc1)N(C)C)CC2 (centres unmarked) [Compound 84, acetyl-{1,1-[3-(dimethylamino-(4-fluorophenyl)methyl) -pentamethylene]-3,4-dihydro-1H-2,9-diazafluorene}] | 41% |
| CN(C)C(c1cccc(F)c1)C1CCC2(CC1)c1[nH]c3ccccc3c1CCN2C(=O)COCc1ccccc1 (centres unmarked) [Compound 94, 2-(benzyloxyacetyl)-{1,1-[3-(dimethylamino-(3-fluorophenyl)methyl)-pentamethylene]-3,4-dihydro-1H-2,9-diazafluorene}] | 32% |
| CC(C)CC(=O)N1CCc2c([nH]c3ccccc23)C12CCC(C(c1cccc(F)c1)N(C)C)CC2 (centres unmarked) [Compound 129, 1-{1,1-[3-(dimethylamino-(3-fluorophenyl)methyl) -pentamethylene]-3,4-dihydro-1H-2,9-diazafluoren-2-yl}-3-methylbutan-1-one] | 74% |
| CN(C)C(c1cccc(F)c1)C1CCC2(CC1)c1[nH]c3ccccc3c1CCN2C(=O)C1CCCCC1 (centres unmarked) [Compound 69, 2-(cyclohexylcarbonyl)-{1,1-[3-(dimethylamino-(3-fluorophenyl)methyl)-pentamethylene]-3,4-dihydro-1H-2,9-diazafluorene}] | 26% |
| CN(C)C(c1cccc(F)c1)C1CCC2(CC1)c1[nH]c3ccccc3c1CCN2C(=O)CC(C)(C)C (centres unmarked) [Compound 66, 1-{1,1-[3-(dimethylamino-(3-fluorophenyl)methyl) -pentamethylene]-3,4-dihydro-1H-2,9-diazafluoren-2-yl}-3,3-dimethylbutan-1-one] | 26% |
| COc1ccc(CC(=O)N2CCc3c([nH]c4ccccc34)C23CCC(C(c2cccc(F)c2)N(C)C)CC3)cc1OC (centres unmarked) [Compound 67, 2-[(3,4-dimethoxyphenyl)acetyl]-{1,1-[3-(dimethylamino-(3-fluorophenyl)methyl)-pentamethylene]-3,4-dihydro-1H-2,9-diazafluorene}] | 25% |
| CN(C)C(c1ccc(Cl)cc1)C1CCC2(CC1)c1[nH]c3ccccc3c1CCN2C(=O)COc1ccc(Cl)cc1 (centres unmarked) [Compound 77, 2-[(4-chlorophenoxy)acetyl]-{1,1-[3-(dimethylamino-(4-chlorophenyl)-methyl)-pentamethylene]-3,4-dihydro-1H-2,9-diazafluorene}] | 17% |
| CN(C)C(c1ccccc1)C1CCC2(CC1)c1[nH]c3ccccc3c1CCN2C(=O)C1CCCCC1 (centres unmarked) [Compound 59, 2-(cyclohexylcarbonyl)-{1,1-[3-(dimethylamino-phenylmethyl)-pentamethylene]-3,4-dihydro-1H-2,9-diazafluorene}] | 29% |
| CN(C)C(c1ccccc1)C1CCC2(CC1)c1[nH]c3ccccc3c1CCN2C(=O)COCc1ccccc1 (centres unmarked) [Compound 83, 2-(benzyloxyacetyl)-{1,1-[3-(dimethylamino-phenylmethyl) -pentamethylene]-3,4-dihydro-1H-2,9-diazafluorene}] | 50% |
| CN(C)C(c1ccc(Cl)cc1)C1CCC2(CC1)c1[nH]c3ccccc3c1CCN2C(=O)Cc1ccc(F)cc1 (centres unmarked) [Compound 123, 2-[(4-fluorophenyl)acetyl]-{1,1-[3-(dimethylamino-(4-chlorophenyl)-methyl)-pentamethylene]-3,4-dihydro-1H-2,9-diazafluorene}] | 20% |
| CCC(=O)N1CCc2c([nH]c3ccccc23)C12CCC(C(c1ccc(Cl)cc1)N(C)C)CC2 (centres unmarked) [Compound 120, 2-propionyl-{1,1-[3-(dimethylamino-(4-chlorophenyl)methyl)-pentamethylene]-3,4-dihydro-1H-2,9-diazafluorene}] | 29% |
| CN(C)C(c1ccc(F)cc1)C1CCC2(CC1)c1[nH]c3ccccc3c1CCN2C(=O)COc1ccc(Cl)cc1 (centres unmarked) [Compound 65, 2-[(4-chlorophenoxy)acetyl]-{1,1-[3-(dimethylamino-(4-fluorophenyl)methyl)-pentamethylene]-3,4-dihydro-1H-2,9-diazafluorene}] | 17% |
| CN(C)C(c1ccc(Cl)cc1)C1CCC2(CC1)c1[nH]c3ccccc3c1CCN2C(=O)COCc1ccccc1 (centres unmarked) [Compound 99, 2-(benzyloxyacetyl)-{1,1-[3-(dimethylamino-(4-chlorophenyl)methyl)-pentamethylene]-3,4-dihydro-1H-2,9-diazafluorene}] | 35% |
| CN(C)C(c1ccc(F)cc1)C1CCC2(CC1)c1[nH]c3ccccc3c1CCN2C(=O)CC(C)(C)C (centres unmarked) [Compound 62, 1-{1,1-[3-(dimethylamino-(4-fluorophenyl)methyl) -pentamethylene]-3,4-dihydro-1H-2,9-diazafluoren-2-yl}-3,3-dimethylbutan-1-one] | 12% |
| CN(C)C(c1cccc(F)c1)C1CCC2(CC1)c1[nH]c3ccccc3c1CCN2C(=O)Cc1cccs1 (centres unmarked) [Compound 93, 2-(2-thienylacetyl)-{1,1-[3-(dimethylamino-(3-fluorophenyl)methyl)-pentamethylene]-3,4-dihydro-1H-2,9-diazafluorene}] | 19% |
| CN(C)C(c1ccccc1)C1CCC2(CC1)c1[nH]c3ccccc3c1CCN2C(=O)CC(C)(C)C (centres unmarked) [Compound 56, 1-{1,1-[3-(dimethylamino-phenylmethyl)-pentamethylene]-3,4-dihydro-1H-2,9-diazafluoren-2-yl}-3,3-dimethylbutan-1-one] | 36% |
| CN(C)C(c1ccccc1)C1CCC2(CC1)c1[nH]c3ccccc3c1CCN2C(=O)c1csc2ccccc12 (centres unmarked) [Compound 103, 2-(1-benzothien-3-ylcarbonyl)-{1,1-[3-(dimethylamino-phenylmethyl)-pentamethylene]-3,4-dihydro-1H-2,9-diazafluorene}] | 13% |
| CN(C)C(c1ccc(F)cc1)C1CCC2(CC1)c1[nH]c3ccccc3c1CCN2C(=O)COCc1ccccc1 (centres unmarked) [Compound 88, 2-(benzyloxyacetyl)-{1,1-[3-(dimethylamino-(4-fluorophenyl)methyl)-pentamethylene]-3,4-dihydro-1H-2,9-diazafluorene}] | 11% |

same assay, conditions: compounds prepared via automated synthesis; single measurements at a test concentration of 1 μM; 1 µM

| SMILES | μ opioid receptor [1 μmol], % inhibition |
| --- | --- |
| CN(C)C(c1ccc(Cl)cc1)C1CCC2(CC1)c1[nH]c3ccccc3c1CCN2C(=O)CCc1ccccc1 (centres unmarked) [Compound 131, 2-(3-phenylpropanoyl)-{1,1-[3-(dimethylamino-(4-chlorophenyl)methyl)-pentamethylene]-3,4-dihydro-1H-2,9-diazafluorene}] | 51% |
